*1 amine or outer side, *2 acyl side, *3 side chain or, on linkers, in order; H or OH if unused. Where a SMILES comes first, the peptide text is derived from it. Bridges are numbered along the chain shown (N, C = ends). Roman numbers before positions name the chains, in order. Side-chain parts run from the residue outwards. [ ]: non-standard residue; d: D form. The star is where a group is joined. C18 diacid = O=C(O)CCCCCCCCCCCCCCCCC(=O)*; γGlu = O=C(O)[C@H](CCC(=O)[*:2])N[*:1]; Desaminohistidyl = O=C(CCc1c[nH]cn1)*; Ac4c = NC1(C(=O)O)CCC1; AEEA = NCCOCCOCC(=O)O; Aib = CC(C)(N)C(=O)O
Key:
human glucagon receptor = biological target: T1, human glucagon receptor (Homo sapiens, UniProt P47871); experiment: Assay (II)(b): glucagon receptor binding, [125I]-glucagon displacement, SPA on BHK membranes; conditions: displacement of [125I]-glucagon, membranes with human glucagon receptor; read-out: IC50 GlucagonR
T1 construct: expressed in transfected cells; host or cells: membranes of BHK cells, clone BHK hGCGR A3*25
Description: Assay (II): GLP-1 and Glucagon Receptor Binding The purpose of this assay is to test the in vitro receptor binding activity of the GLP-1 derivatives of the invention. (b) Glucagon Receptor Binding The glucagon receptor (glucagonR) binding activity is a measure of affinity of a derivative for the human glucagon receptor. The glucagon receptor binding of each derivative were determined with competitive binding, displacing [^125I]-glucagon bound to glucagon receptors expressed in cell membranes associated with wheat germ agglutinin (WGA) scintillation proximity assay (SPA) beads. Each derivative was added in a series of concentrations to isolated membranes comprising the human glucagon receptor and displacement of the labelled ligand was monitored. The receptor binding was reported as the concentration at which half of the labelled ligand is displaced from the receptor, the IC^50 value. The following chemicals were used in the assay: DMEM w Glutamax (Gibco 61965-026), Pen/strep (Invitrogen 15140-122), G418 (Invitrogen 10131-027), Versene (Gibco 15040), 1 M Hepes (Gibco 15630), PBS (Invitrogen 14190-094), fetal calf serum (Invitrogen 16140-071), MgCl2 (Merck 1.05832.1000), EDTA (Invitrogen 15575-038), CaCl2 (Sigma, C5080), Tween 20 (Amresco 0850C335), ovalbumin (Sigma A5503), SPA particles (wheat germ agglutinin (WGA) SPA beads, Perkin Elmer RPNQ0001), [125I]-glucagon (produced in-house), OptiPlate™-96 (Packard 6005290). HME buffer consisted of 25 mM HEPES, 2 mM MgCl2 and 1 mM EDTA, and pH was adjusted to 7.4. Assay buffer consisted of 50 mM HEPES supplemented with 5 mM MgCl2, 1 mM CaCl2, 0.02% Tween 20 and 0.1% Ovalbumin, and pH was adjusted to 7.4. The cells used in this assay (clone BHK hGCGR A3*25) were BHK cells stable transfected with an expression plasmid comprising the cDNA encoding the human glucagon receptor. The cells were grown at 5% CO2 in DMEM, 10% fetal calf serum, 1% Pen/Strep (Penicillin/Streptomycin) and 1.0 mg/ml of the selection marker G418. To make a membrane preparation the cells were grown to approximately 80% confluence. The cells were washed twice in phosphate-buffered saline and harvested. The cells were pelleted using a brief centrifugation and the cell pellet was kept on ice. Lyse the cells by adding approx. 5 ml HME buffer, mix by pipetting and snap freeze in liquid nitrogen. Thaw quickly and add HME buffer to 10 ml. The cell pellet was homogenised with an ULTRA-THURRAX dispersing instrument for 20-30 seconds. The homogenate was centrifuged at 20.000×G, 4° C. for 10 minutes. The pellet was resuspended (homogenised) in 1-2 ml HME buffer. The protein concentration was determined. The membranes were aliquoted and snapfrozen in liquid nitrogen and stored at minus 80° C. • 1. For the receptor binding assay 50 μl of the assay buffer was added to each well of an assay plate. • 2. Test compounds were serially diluted to give the following concentrations: 8×10EE-7 M, 8×10EE-8 M, 8×10EE-9 M, 8×10EE-10 M, 8×10EE-11 M, 8×10EE-12 M and 8×10EE-13 M. Twenty-five μl were added to appropriate wells in the assay plate. • 3. Cell membrane aliquots were thawed and diluted to their working concentration. Fifty μl were added to each well in the assay plate. • 4. WGA SPA beads were suspended in assay buffer at 20 mg/ml. The suspension was diluted to 10 mg/ml in assay buffer just prior to addition to the assay plate. Fifty μl were added to each well in the assay plate. • 5. The incubation was started by adding 25 μl of 480 pM solution of [125I]-glucagon to each well of the assay plate. A 25 μl aliquot was reserved for measuring total counts/well. • 6. The assay plate was incubated for 2 h at 25° C. • 7. The assay plate was centrifuged for 10 min at 1500 rpm. • 8. The assay plate was read in a Perkin Elmer TopCount NXT instrument. Calculations The data from the TopCount instrument were transferred to GraphPad Prism software. The software averaged the values for the replicates and performed a non-linear regression. […]

human GLP-1 receptor = biological target: T2, human GLP-1 receptor (Homo sapiens, UniProt P43220); experiment: Assay (I)(a): GLP-1 receptor potency, CRE luciferase reporter gene assay in BHK cells; type: cell-based; conditions: BHK cells expressing human GLP-1 receptor, read-out: EC50 GLP-1R
T2 construct: expressed in transfected cells; host or cells: membranes of BHK cells, parent line BHKTS13, clone FCW467-12A
Method in brief: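 BHK cells (clone FCW467-12A/KZ10-1), 5×10EE3/well, exposed 3 h at 37° C to compound at 1×10EE-13 to 1×10EE-6 M final in medium with 2% ovalbumin and 0.2% Pluronic F-68. Luciferase luminescence read; EC50 (pM) from four-parameter fit.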

[1] = Assay (V): chemical stability assessment by RP-UPLC; type: physicochemical; conditions: 14 days at 37° C. in phosphate buffer (pH 7.3)
Description: Assay (V): Chemical Stability Assessment
The purpose of this assay is to assess the chemical stability of the GLP-1 derivatives of the present invention in aqueous solutions.
Chemical stability of GLP-1 derivatives may be investigated by RP-UPLC separation and UV detection. Lyophilized samples are dissolved in a 8 mM Phosphate buffer pH 8.6, followed by adjustment to pH 7.3 using HCl to a final concentration of 333 μM. Samples are incubated for 14 days at 5° C. and 37° C. followed by RP-UPLC analysis. Purity is defined as the area percentage of the main peak in relation to the total area of all integrated peaks in each chromatogram. Purity loss, also referred to herein as chemical degradation, after 14 days at 37° C. is determined as the difference in purity between the samples incubated at 5° C. and 37° C., divided by the purity of the sample after incubation for 14 days at 5° C.
RP-UPLC analysis is performed using a Waters BEH130 2.1 mm×150 mm, 1.7 μm column operated at 50° C. and a flow rate of 0.4 mL/min using a mobile phase system consisting of A: 0.05% TFA in MQ-water, and B: 0.05% TFA in Acetonitrile. UV-detection is performed at 215 nm. The typical gradient profile used for most of the samples is shown below.
For some individual derivatives eluting at substantially different retention times compared with the majority of derivatives, some adjustments to the gradient profile are made to better enable purity assessment comparison across samples.

T2 sequence (P43220 24-463): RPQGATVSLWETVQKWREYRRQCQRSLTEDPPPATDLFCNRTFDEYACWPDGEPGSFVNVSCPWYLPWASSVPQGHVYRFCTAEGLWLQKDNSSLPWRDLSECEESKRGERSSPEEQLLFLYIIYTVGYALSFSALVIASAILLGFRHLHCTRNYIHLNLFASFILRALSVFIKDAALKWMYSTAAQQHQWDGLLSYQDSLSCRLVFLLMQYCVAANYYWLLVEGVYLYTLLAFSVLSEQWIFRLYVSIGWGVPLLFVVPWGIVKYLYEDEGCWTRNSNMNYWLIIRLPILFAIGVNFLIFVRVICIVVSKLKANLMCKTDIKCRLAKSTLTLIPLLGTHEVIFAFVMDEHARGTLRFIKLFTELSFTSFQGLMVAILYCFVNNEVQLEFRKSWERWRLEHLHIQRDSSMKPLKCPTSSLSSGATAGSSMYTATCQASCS
T1 sequence (P47871 26-477): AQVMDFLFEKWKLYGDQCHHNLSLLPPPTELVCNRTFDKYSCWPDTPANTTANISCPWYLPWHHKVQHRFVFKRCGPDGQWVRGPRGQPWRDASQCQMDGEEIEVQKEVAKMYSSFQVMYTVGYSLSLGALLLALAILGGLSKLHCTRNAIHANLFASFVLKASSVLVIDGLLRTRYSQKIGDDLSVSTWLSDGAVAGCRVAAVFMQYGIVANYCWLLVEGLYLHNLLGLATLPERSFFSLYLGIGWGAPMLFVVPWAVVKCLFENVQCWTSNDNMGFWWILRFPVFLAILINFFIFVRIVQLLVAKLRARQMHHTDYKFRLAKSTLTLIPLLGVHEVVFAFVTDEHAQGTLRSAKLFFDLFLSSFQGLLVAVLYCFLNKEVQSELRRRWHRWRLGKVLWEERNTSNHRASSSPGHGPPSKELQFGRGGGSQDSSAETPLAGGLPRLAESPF

| SMILES | IC50 (human glucagon receptor) | EC50 (human GLP-1 receptor) | Chemical stability: Chemical degradation over 14 days at 37° C. [1] |
| --- | --- | --- | --- |
| CC[C@H](C)[C@H](NC(=O)[C@H](Cc1ccccc1)NC(=O)[C@H](CCC(=O)O)NC(=O)[C@H](CCCNC(=N)N)NC(=O)[C@H](C)NC(=O)[C@H](C)NC(=O)[C@H](CCC(N)=O)NC(=O)[C@H](CCC(=O)O)NC(=O)[C@H](CCC(=O)O)NC(=O)[C@H](CC(C)C)NC(=O)[C@H](Cc1ccc(O)cc1)NC(=O)[C@H](CCCCN)NC(=O)[C@H](CO)NC(=O)[C@@H](NC(=O)[C@H](CC(=O)O)NC(=O)[C@H](CO)NC(=O)[C@@H](NC(=O)[C@H](Cc1ccccc1)NC(=O)[C@@H](NC(=O)CNC(=O)[C@H](Cc1c[nH]cn1)NC(=O)C(C)(C)NC(=O)CCc1c[nH]cn1)[C@@H](C)O)[C@@H](C)O)C(C)C)C(=O)N[C@@H](C)C(=O)N[C@@H](Cc1c[nH]c2ccccc12)C(=O)N[C@@H](CC(C)C)C(=O)N[C@@H](CC(C)C)C(=O)N[C@@H](CCCCNC(=O)CNC(=O)[C@H](CO)NC(=O)[C@H](CCC(=O)O)NC(=O)CNC(=O)[C@H](CO)NC(=O)CC[C@H](NC(=O)CC[C@H](NC(=O)CCCCCCCCCCCCCCCCC(=O)O)C(=O)O)C(=O)O)C(=O)N[C@H](C(=O)O)[C@@H](C)O [Example 25, N^ε34-[2-[[(2S)-2-[[(2S)-4-carboxy-2-[[2-[[(2S)-2-[[(4S)-4-carboxy-4-[[(4S)-4-carboxy-4-(17-carboxyheptadecanoylamino)butanoyl]amino]butanoyl]amino]-3-hydroxypropanoyl]amino]acetyl]amino]butanoyl]amino]-3-hydroxypropanoyl]amino]acetyl]-[Imp7,Aib8,His9,Lys18,Glu22,Arg26,Leu33,Thr35]-GLP-1-(7-35)-peptide] (I: Desaminohistidyl-[Aib]HGTFTSDVSKYLEEQAAREFIAWLLKT-OH / II: {C18 diacid-γGlu-γGlu}-SGESG; amide I:27-II:C) | 18800 pM |  |  |
| CC[C@H](C)[C@H](NC(=O)[C@H](Cc1ccccc1)NC(=O)[C@H](CCC(=O)O)NC(=O)[C@H](CCCNC(=N)N)NC(=O)[C@H](C)NC(=O)[C@H](C)NC(=O)[C@H](CCC(N)=O)NC(=O)[C@H](CCC(=O)O)NC(=O)[C@H](CCC(=O)O)NC(=O)[C@H](CC(C)C)NC(=O)[C@H](Cc1ccc(O)cc1)NC(=O)[C@H](CCCCN)NC(=O)[C@H](CO)NC(=O)[C@H](Cc1ccc(O)cc1)NC(=O)[C@H](CC(=O)O)NC(=O)[C@H](CO)NC(=O)[C@@H](NC(=O)[C@H](Cc1ccccc1)NC(=O)[C@@H](NC(=O)CNC(=O)[C@H](Cc1c[nH]cn1)NC(=O)C1(NC(=O)CCc2c[nH]cn2)CCC1)[C@@H](C)O)[C@@H](C)O)C(=O)N[C@@H](C)C(=O)N[C@@H](Cc1c[nH]c2ccccc12)C(=O)N[C@@H](CC(C)C)C(=O)N[C@@H](CC(C)C)C(=O)N[C@@H](CCCCN)C(=O)N[C@@H](CCCCNC(=O)CC[C@H](NC(=O)COCCOCCNC(=O)CC[C@H](NC(=O)COCCOCCNC(=O)CC[C@H](NC(=O)COCCOCCNC(=O)CC[C@H](NC(=O)CC[C@H](NC(=O)CCCCCCCCCCCCCCCCC(=O)O)C(=O)O)C(=O)O)C(=O)O)C(=O)O)C(=O)O)C(N)=O [Example 21, N^ε35-[(4S)-4-carboxy-4-[[2-[2-[2-[[(4S)-4-carboxy-4-[[2-[2-[2-[[(4S)-4-carboxy-4-[[2-[2-[2-[[(4S)-4-carboxy-4-[[(4S)-4-carboxy-4-(17-carboxyheptadecanoylamino)butanoyl]amino]butanoyl]amino]ethoxy]ethoxy]acetyl]amino]butanoyl]amino]ethoxy]ethoxy]acetyl]amino]butanoyl]amino]ethoxy]ethoxy]acetyl]amino]butanoyl]-[Imp7,Acb8,His9,Tyr16,Lys18,Glu22,Arg26,Leu33,Lys35]-GLP-1-(7-35)-peptide amide] (Desaminohistidyl-[Ac4c]HGTFTSDYSKYLEEQAAREFIAWLLKK([γGlu-AEEA-γGlu-AEEA-γGlu-AEEA-γGlu-γGlu-C18 diacid])-NH2) |  | 3 pM | 1.6% |
| CC[C@H](C)[C@H](NC(=O)[C@H](Cc1ccccc1)NC(=O)[C@H](CCC(=O)O)NC(=O)[C@H](CCCNC(=N)N)NC(=O)[C@H](C)NC(=O)[C@H](C)NC(=O)[C@H](CCCNC(=N)N)NC(=O)[C@H](CCCNC(=N)N)NC(=O)[C@H](CCC(=O)O)NC(=O)[C@H](CC(C)C)NC(=O)[C@H](Cc1ccc(O)cc1)NC(=O)[C@H](CCCCN)NC(=O)[C@H](CO)NC(=O)[C@H](Cc1ccc(O)cc1)NC(=O)[C@H](CC(=O)O)NC(=O)[C@H](CO)NC(=O)[C@@H](NC(=O)[C@H](Cc1ccccc1)NC(=O)[C@@H](NC(=O)CNC(=O)[C@H](Cc1c[nH]cn1)NC(=O)C1(NC(=O)CCc2c[nH]cn2)CCC1)[C@@H](C)O)[C@@H](C)O)C(=O)N[C@@H](C)C(=O)N[C@@H](Cc1c[nH]c2ccccc12)C(=O)N[C@@H](CC(C)C)C(=O)N[C@@H](CC(C)C)C(=O)N[C@@H](CCCCN)C(=O)N[C@@H](CCCCNC(=O)CC[C@H](NC(=O)COCCOCCNC(=O)CC[C@H](NC(=O)COCCOCCNC(=O)CC[C@H](NC(=O)COCCOCCNC(=O)CC[C@H](NC(=O)CC[C@H](NC(=O)CCCCCCCCCCCCCCCCC(=O)O)C(=O)O)C(=O)O)C(=O)O)C(=O)O)C(=O)O)C(N)=O [Example 24, N^ε35-[(4S)-4-carboxy-4-[[2-[2-[2-[[(4S)-4-carboxy-4-[[2-[2-[2-[[(4S)-4-carboxy-4-[[2-[2-[2-[[(4S)-4-carboxy-4-[[(4S)-4-carboxy-4-(17-carboxyheptadecanoylamino)butanoyl]amino]butanoyl]amino]ethoxy]ethoxy]acetyl]amino]butanoyl]amino]ethoxy]ethoxy]acetyl]amino]butanoyl]amino]ethoxy]ethoxy]acetyl]amino]butanoyl]-[Imp7,Acb8,His9,Tyr16,Lys18,Arg22,Arg23,Arg26, Leu33, Lys35]-GLP-1-(7-35)-peptide amide] (Desaminohistidyl-[Ac4c]HGTFTSDYSKYLERRAAREFIAWLLKK([γGlu-AEEA-γGlu-AEEA-γGlu-AEEA-γGlu-γGlu-C18 diacid])-NH2) |  | 8 pM | 2.2% |

— patent US9988430B2, “Stable GLP-1 based GLP-1/glucagon receptor co-agonists” (Novo Nordisk A/S, priority 2014, dated 2018)
